Measured values as given in PubChem BioAssay (NCI).
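Dose response: 5 concentrations. Exposure: 48 h. Format: 96-well plates. Endpoint: linear interpolation; highest concentration if not reached. GI50 marks 50% less growth. Definition used: TGI = concentration required for complete inhibition of growth.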

Key:
Assay in all cases: inhibition of tumour cell growth, NCI panel, 48 h
NCI-H23 lung = test system: NCI-H23 lung
NCI-H460 lung = test system: NCI-H460 lung
NCI-H522 lung = test system: NCI-H522 lung
NCI/ADR-RES ovarian = test system: NCI/ADR-RES ovarian
OVCAR-3 ovarian = test system: OVCAR-3 ovarian
OVCAR-4 ovarian = test system: OVCAR-4 ovarian
OVCAR-5 ovarian = test system: OVCAR-5 ovarian
OVCAR-8 ovarian = test system: OVCAR-8 ovarian
PC-3 prostate = test system: PC-3 prostate
RPMI-8226 leukemia = test system: RPMI-8226 leukemia
RXF 393 renal = test system: RXF 393 renal
SF-268 CNS = test system: SF-268 CNS
SF-295 CNS = test system: SF-295 CNS
SF-539 CNS = test system: SF-539 CNS
SK-MEL-2 melanoma = test system: SK-MEL-2 melanoma
SK-MEL-28 melanoma = test system: SK-MEL-28 melanoma
SK-MEL-5 melanoma = test system: SK-MEL-5 melanoma
SK-OV-3 ovarian = test system: SK-OV-3 ovarian
SN12C renal = test system: SN12C renal
SNB-19 CNS = test system: SNB-19 CNS
SNB-75 CNS = test system: SNB-75 CNS
SR leukemia = test system: SR leukemia
SW-620 colon = test system: SW-620 colon
T-47D breast = test system: T-47D breast
TK-10 renal = test system: TK-10 renal
U251 CNS = test system: U251 CNS
UACC-257 melanoma = test system: UACC-257 melanoma
UACC-62 melanoma = test system: UACC-62 melanoma
UO-31 renal = test system: UO-31 renal

CCCn1cnc2c(c1=N)C(c1ccc(OC)cc1)c1sc3c(C)cccc3c1O2 (stereo unspecified)
TGI (NCI-H23 lung): 14200 nM | GI50 (NCI-H460 lung): 381 nM | TGI (NCI-H460 lung): 10500 nM | GI50 (NCI-H522 lung): 409 nM | TGI (NCI-H522 lung): 7590 nM | GI50 (NCI/ADR-RES ovarian): 359 nM | TGI (NCI/ADR-RES ovarian): 12400 nM | GI50 (OVCAR-3 ovarian): 379 nM | TGI (OVCAR-3 ovarian): 5920 nM | GI50 (OVCAR-4 ovarian): 1610 nM | TGI (OVCAR-4 ovarian): 20700 nM | GI50 (OVCAR-5 ovarian): 1160 nM | TGI (OVCAR-5 ovarian): 15000 nM | GI50 (OVCAR-8 ovarian): 564 nM | TGI (OVCAR-8 ovarian): 18800 nM | GI50 (PC-3 prostate): 415 nM | TGI (PC-3 prostate): 16000 nM | GI50 (RPMI-8226 leukemia): 369 nM | TGI (RPMI-8226 leukemia): 4450 nM | GI50 (RXF 393 renal): 215 nM | TGI (RXF 393 renal): 603 nM | GI50 (SF-268 CNS): 787 nM | TGI (SF-268 CNS): 14900 nM | GI50 (SF-295 CNS): 368 nM | TGI (SF-295 CNS): 11600 nM | GI50 (SF-539 CNS): 301 nM | TGI (SF-539 CNS): 1270 nM | GI50 (SK-MEL-2 melanoma): 719 nM | TGI (SK-MEL-2 melanoma): 21000 nM | GI50 (SK-MEL-28 melanoma): 3340 nM | TGI (SK-MEL-28 melanoma): 21600 nM | GI50 (SK-MEL-5 melanoma): 411 nM | TGI (SK-MEL-5 melanoma): 12500 nM | GI50 (SK-OV-3 ovarian): 657 nM | TGI (SK-OV-3 ovarian): 22200 nM | GI50 (SN12C renal): 635 nM | TGI (SN12C renal): 15500 nM | GI50 (SNB-19 CNS): 490 nM | TGI (SNB-19 CNS): 16000 nM | GI50 (SNB-75 CNS): 209 nM | TGI (SNB-75 CNS): 1700 nM | GI50 (SR leukemia): 349 nM | GI50 (SW-620 colon): 517 nM | TGI (SW-620 colon): 17300 nM | GI50 (T-47D breast): 527 nM | TGI (T-47D breast): 30400 nM | GI50 (TK-10 renal): 8090 nM | TGI (TK-10 renal): 33900 nM | GI50 (U251 CNS): 445 nM | TGI (U251 CNS): 12900 nM | GI50 (UACC-257 melanoma): 12900 nM | TGI (UACC-257 melanoma): 35500 nM | GI50 (UACC-62 melanoma): 439 nM | TGI (UACC-62 melanoma): 15000 nM | GI50 (UO-31 renal): 406 nM | TGI (UO-31 renal): 16500 nM
